From patent US20230271966A1, “PRPK INHIBITORS” (Dana-Farber Cancer Institute, Inc., priority 2020, published 2023)

Assays:
[1] = target: PRPK (Homo sapiens (Human), UniProt Q96S44); experiment: Isothermal titration calorimetry (ITC), PRPK; type: binding; details: for Kd: 20 μM protein titrated with 200 μM test compound, 20 mM HEPES pH 7.5, 150 mM NaCl, 0.5 mM TCEP, 2% DMSO, 25° C, single site model; for PRPK binding Kd compared with pomalidomide: ITC, comparison in words with control Pomalidomide
PRPK, sequence (Q96S44 whole entry): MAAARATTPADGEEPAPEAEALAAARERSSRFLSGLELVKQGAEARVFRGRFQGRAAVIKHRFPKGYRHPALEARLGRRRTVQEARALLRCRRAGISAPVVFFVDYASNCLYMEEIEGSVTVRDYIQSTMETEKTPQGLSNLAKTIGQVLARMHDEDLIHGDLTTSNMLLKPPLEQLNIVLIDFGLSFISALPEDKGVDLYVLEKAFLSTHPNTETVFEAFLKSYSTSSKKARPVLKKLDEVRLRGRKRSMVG
Experimental: (§1) All calorimetric experiments were carried out using an Affinity ITC from TA Instruments (New Castle, Del.) equipped with an auto sampler in a buffer containing 20 mM HEPES, pH 7.5, 150 mM NaCl, 0.5 mM TCEP, and 2% DMSO at 25° C. 20 μM protein solution containing PRPK or Cereblon (CRBN) in the calorimetric cell was titrated with 200 μM of a test compound solution using 2 μL injection in 200 seconds intervals using a stirring speed at 125 rpm. Resulting isotherm was fitted with a single site model to yield thermodynamic parameters of ΔH, ΔS, stoichiometry, and Kd using NanoAnalyze software (TA instruments).

[2] = target: Cereblon (CRBN) (Homo sapiens (Human), UniProt Q96SW2); experiment: Isothermal titration calorimetry (ITC), Cereblon (CRBN); type: binding; details: for Kd: 20 μM protein titrated with 200 μM test compound, 20 mM HEPES pH 7.5, 150 mM NaCl, 0.5 mM TCEP, 2% DMSO, 25° C, single site model
Cereblon (CRBN), sequence (Q96SW2 whole entry, species assumed): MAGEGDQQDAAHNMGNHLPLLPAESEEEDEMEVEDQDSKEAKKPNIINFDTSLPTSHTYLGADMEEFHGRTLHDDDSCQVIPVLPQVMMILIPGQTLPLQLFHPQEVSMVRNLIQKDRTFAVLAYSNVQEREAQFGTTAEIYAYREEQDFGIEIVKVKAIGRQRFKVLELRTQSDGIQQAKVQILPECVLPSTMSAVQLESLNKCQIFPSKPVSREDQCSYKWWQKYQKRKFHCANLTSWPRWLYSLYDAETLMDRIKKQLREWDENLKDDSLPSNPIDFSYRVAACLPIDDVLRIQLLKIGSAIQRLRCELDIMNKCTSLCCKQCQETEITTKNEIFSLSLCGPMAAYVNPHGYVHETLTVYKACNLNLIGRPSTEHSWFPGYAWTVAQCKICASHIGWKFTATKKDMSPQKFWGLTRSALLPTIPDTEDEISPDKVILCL
Experimental: as §1

## C[C@@]1(N2C(=O)c3ccc(C(=O)O)cc3C2=O)CCC(=O)NC1=O [Compound 12, (R)-2-(3-methyl-2,6-dioxopiperidin-3-yl)-1,3-dioxoisoindoline-5-carboxylic acid]
[1]
  Kd: 0.28 ± 0.08 µM
  PRPK binding Kd compared with pomalidomide: lower than Pomalidomide
[2]
  Kd: > 1000 µM
  CRBN inhibition (conclusion in words from ITC): not CRBN inhibitors

## O=C1CCC(N2C(=O)c3ccc(-c4cn[nH]c4)c(O)c3C2=O)C(=O)N1 (centres unmarked) [Compound 13, 2-(2,6-dioxopiperidin-3-yl)-4-hydroxy-5-(1H-pyrazol-4-yl)isoindoline-1,3-dione]
[1]
  Kd: 1.9 ± 1.7 µM
  PRPK binding Kd compared with pomalidomide: lower than Pomalidomide
[2]
  Kd: 0.54 µM
  CRBN inhibition (conclusion in words from ITC): not CRBN inhibitors

## C[C@@]1(N2C(=O)c3ccc(-c4cn[nH]c4)c(O)c3C2=O)CCC(=O)NC1=O [Compound 22, (R)-4-hydroxy-2-(3-methyl-2,6-dioxopiperidin-3-yl)-5-(1H-pyrazol-4-yl)isoindoline-1,3-dione]
[1]
  Kd: > 1000 µM
[2]
  Kd: > 1000 µM

## C[C@@]1(N2C(=O)c3ccc(-c4n[nH]c(=S)o4)cc3C2=O)CCC(=O)NC1=O [Compound 30, (R)-2-(3-methyl-2,6-dioxopiperidin-3-yl)-5-(5-thioxo-4,5-dihydro-1,3,4-oxadiazol-2-yl)isoindoline-1,3-dione]
[1]
  Kd: 0.36 ± 0.07 µM
  PRPK binding Kd compared with pomalidomide: lower than Pomalidomide
[2]
  Kd: > 1000 µM
  CRBN inhibition (conclusion in words from ITC): not CRBN inhibitors
